≈ marks a conversion by molar mass, not a printed value. Where a name gives a salt, the structure may show the parent alone.
Legend:
[1] = tested on: NCI-H460; test: Growth inhibition, NCI-H460 non-small cell lung cancer cells (SRB); type: cell-based; details: Homo sapiens, 48 hours incubation, read-out: GI50 for Cell Line NCI-H460
Experimental: (§1) Newly prepared compounds were evaluated for cytotoxic activity against a variety of cell lines derived from human tumors using an assay system similar to the National Cancer Institute procedure previously described (Monks et al, J. Natl. Cancer Inst., 1991). Briefly, the cell suspensions, diluted according to the particular cell type and the expected target cell density (5,000-40,000 cells per well based on cell growth characteristics), were added by pipet (100 μl) to 96-well microtiter plates. Inoculates were allowed a preincubation time of 24-28 hours at 37° C. for stabilization. Incubation with the inhibitor compounds lasted for 48 hours in […] atmosphere and 100% humidity. Determination of cell growth was performed by in situ fixation of cells, followed by staining with a protein-binding dye sulforhodamine B (SRB), which binds to the basic amino acids of cellular macromolecules. The solubilized stain was measured spectrophotometrically.
(§2) Several compounds were evaluated for cytotoxic activity against […] P388 leukemia cell lines. The effective dose or ED50 value (defined as the effective dosage required to inhibit 50% of cell growth) was measured. These and additional compounds were evaluated in terms of growth inhibitory activity against several other human cancer cell lines including: central nervous system (“CNS”, SF-268), pancreas (BXPC-3), non-small cell lung cancer (“lung-NCS”, NCI-H460), breast (MCF-7), colon (KM20L2), ovarian (OVCAR-3), and prostate (DU-145). The growth inhibition GI50(defined as the dosage required to inhibit tumor cell growth by 50%) is listed for each cell line.

[2] = tested on: KM20L2; test: Growth inhibition, KM20L2 colon cancer cells (SRB); type: cell-based; details: Homo sapiens, KM-20L2, 48 hours incubation, read-out: GI50 for Cell Line KM20L2
Experimental: as §1, §2

[3] = tested on: P388 leukemia cell lines; test: In vitro cytotoxicity, P388 leukemia cells (SRB); type: cell-based; details: for IC50: P388, 48 hours incubation, read-out: ED50 for P-388 Cell Line
Experimental: as §1, §2

[4] = tested on: MCF-7; test: Growth inhibition, MCF-7 breast cancer cells (SRB); type: cell-based; details: Homo sapiens, MCF7, 48 hours incubation, read-out: GI50 for Cell Line MCF-7
Experimental: as §1, §2

[5] = tested on: SF-268; test: Growth inhibition, SF-268 CNS cancer cells (SRB); type: cell-based; details: Homo sapiens, 48 hours incubation, read-out: GI50 for Cell Line SF-268
Experimental: as §1, §2

[6] = tested on: purified tubulin; test: In vitro inhibition of tubulin polymerization; type: biochemical, bovine; details: 1.5 mg/ml tubulin, 15 min preincubation at 37° C., GTP-induced, 350 nm
Experimental: IC50 values for tubulin polymerization were determined according to a previously described procedure (Bai et al., Cancer Research, 1996). Purified tubulin is obtained from bovine brain cells as previously described (Hamel and Lin, Biochemistry, 1984). Various amounts of inhibitor were preincubated for 15 minutes at 37° C. with purified tubulin. After the incubation period, the reaction was cooled and GTP was added to induce tubulin polymerization. Polymerization was then monitored in a Gilford spectrophotometer at 350 nm. The final reaction mixtures (0.25 ml) contained 1.5 mg/ml tubulin, 0.6 mg/ml microtubule-associated proteins (MAPs), 0.5 mM GTP, 0.5 mM MgCl2, 4% DMSO and 0.1M 4-morpholineethanesulfonate buffer (MES, pH 6.4). IC50 is the amount of inhibitor needed to inhibit tubulin polymerization 50% with respect to the amount of […] that occurs in the absence of inhibitor.

[7] = tested on: BXPC-3; test: Growth inhibition, BXPC-3 pancreas cancer cells (SRB); type: cell-based; details: Homo sapiens, 48 hours incubation, read-out: GI50 for Cell Line BXPC-3
Experimental: as §1, §2

[8] = tested on: DU-145; test: Growth inhibition, DU-145 prostate cancer cells (SRB); type: cell-based; details: Homo sapiens, 48 hours incubation, read-out: GI50 for Cell Line DU-145
Experimental: as §1, §2

[9] = tested on: MHEC-5T hemangioendothelioma tumor; test: Inhibition of tumor blood flow, Fluorescent Bead Assay; type: in vivo, SCID mice; details: 24 hours post-treatment, vessel area per tumor tissue area as percentage of control
Experimental: The antivascular effects of the chromene phosphate prodrug were assessed in tumor-bearing mice using a Fluorescent Bead Assay. A MHEC-5T hemangioendothelioma tumor model was established by subcutaneous injection of 0.5×10^6 cultured transformed cell murine myocardial vascular endothelial cell line (“MHEC5-T”) cells into the right flank of Fox Chase CB-17 Severe Combined Immunodeficient (“SCID”) mice. […] At 24 hours post-treatment, mice were injected intravenously with 0.25 ml of diluted FluoSphere beads (1:6 in physiological saline) in the tail vein, sacrificed after 3 minutes, and tumor was excised for cryosectioning. Tumor cryosections at a thickness of 8 um were directly examined using quantitative fluorescent microscopy. Blood vessels were indicated by blue fluorescence from injected beads. For quantification, image analysis of 3 sections from three tumors treated in each group were examined and vascular shutdown was expressed as vessel area (mm^2) per tumor tissue area (mm^2) as a percentage of the control (“% VAPM”).

SMILES	GI50 [1]	GI50 [2]	GI50 [4]	GI50 [5]	IC50 [6]	GI50 [7]	GI50 [8]	IC50 [3]	ED50 for P-388 Cell Line ([3]; 48 hours incubation)	% VAPM at 10 mg/kg dose ([9]; 10 mg/kg single i.p.)	% VAPM at 100 mg/kg dose ([9]; 100 mg/kg single i.p.)
COc1cc(C(=O)C2=Cc3cccc(O)c3OC2)cc(OC)c1OC [Compound 15, 3-(3′,4′,5′-Trimethoxybenzoyl)-8-hydroxy-2H-chromene]	0.044 µg/mL (≈ 0.129 µM)	4 µg/mL (≈ 11.7 µM)	0.21 µg/mL (≈ 0.613 µM)	0.048 µg/mL (≈ 0.14 µM)	2 to 4 µM	2.4 µg/mL (≈ 7.01 µM)	0.026 µg/mL (≈ 0.0759 µM)	0.093 µg/mL (≈ 0.272 µM)			
COc1cc(C(=O)C2=Cc3ccc(O)c(O)c3OC2)cc(OC)c1OC [Compound 17, 3-(3′,4′,5′-Trimethoxybenzoyl)-7,8-dihydroxy-2H-chromene]	0.34 µg/mL (≈ 0.949 µM)	6.3 µg/mL (≈ 17.6 µM)	0.48 µg/mL (≈ 1.34 µM)	0.32 µg/mL (≈ 0.893 µM)	10 to 20 µM	3 µg/mL (≈ 8.37 µM)	0.23 µg/mL (≈ 0.642 µM)	1.8 µg/mL (≈ 5.02 µM)			
COc1cc(C(=O)C2=Cc3ccc(OC)c(OC)c3OC2)cc(OC)c1OC [Compound 12, 3-(3′,4′,5′-Trimethoxybenzoyl)-7,8-dimethoxy-2H-chromene]	0.37 µg/mL (≈ 0.958 µM)	0.4 µg/mL (≈ 1.04 µM)	0.48 µg/mL (≈ 1.24 µM)	0.34 µg/mL (≈ 0.88 µM)	20 µM	0.46 µg/mL (≈ 1.19 µM)	0.16 µg/mL (≈ 0.414 µM)	0.41 µg/mL (≈ 1.06 µM)			
COc1cc(C(=O)C2=Cc3cccc(OP(=O)(O)O)c3OC2)cc(OC)c1OC [Compound 16, 3-(3′,4′,5′-Trimethoxybenzoyl)-8-phosphate-2H-chromene disodium salt]	0.12 µg/mL	5.4 µg/mL	0.45 µg/mL	0.058 µg/mL		1.6 µg/mL	0.046 µg/mL	0.019 µg/mL			
COc1cc(C(=O)C2=Cc3ccc(OP(=O)(O)O)c(OP(=O)(O)O)c3OC2)cc(OC)c1OC [Compound 18, 3-(3′,4′,5′-Trimethoxybenzoyl)-7,8-diphosphate-2H-chromene tetrasodium salt]	3.5 µg/mL	> 10 µg/mL	4.2 µg/mL	3.4 µg/mL	> 40 µM	> 10 µg/mL	2.2 µg/mL	0.56 µg/mL			
COc1cc(OC)c2c(c1)OCC(C(=O)c1cc(OC)c(OC)c(OC)c1)=C2 [Compound 14, 3-(3′,4′,5′-Trimethoxybenzoyl)-5,7-dimethoxy-2H-chromene]	0.4 µg/mL (≈ 1.04 µM)	0.37 µg/mL (≈ 0.958 µM)	0.47 µg/mL (≈ 1.22 µM)	0.4 µg/mL (≈ 1.04 µM)	20 µM	0.43 µg/mL (≈ 1.11 µM)	0.24 µg/mL (≈ 0.621 µM)	16.3 µg/mL (≈ 42.2 µM)			

Further lines, with some results ahead:

GI50 [1]	GI50 [2]	GI50 [4]	GI50 [5]	IC50 [6]	GI50 [7]	GI50 [8]	SMILES	IC50 [3]	ED50 for P-388 Cell Line ([3]; 48 hours incubation)	% VAPM at 10 mg/kg dose ([9]; 10 mg/kg single i.p.)	% VAPM at 100 mg/kg dose ([9]; 100 mg/kg single i.p.)
		0.27 µg/mL (≈ 0.758 µM)		4 to 10 µM			COc1ccc2c(c1)OCC(C(=O)c1cc(OC)c(OC)c(OC)c1)=C2 [Compound 8, 3-(3′,4′,5′-Trimethoxybenzoyl)-7-methoxy-2H-chromene]		2.04 µg/mL		
0.4 µg/mL (≈ 1.04 µM)	0.4 µg/mL (≈ 1.04 µM)	0.56 µg/mL (≈ 1.45 µM)	0.5 µg/mL (≈ 1.29 µM)	20 µM	0.38 µg/mL (≈ 0.983 µM)	0.42 µg/mL (≈ 1.09 µM)	COc1cc2c(cc1OC)OCC(C(=O)c1cc(OC)c(OC)c(OC)c1)=C2 [Compound 13, 3-(3′,4′,5′-Trimethoxybenzoyl)-6,7-dimethoxy-2H-chromene]	2.5 µg/mL (≈ 6.47 µM)			
		0.055 µg/mL (≈ 0.148 µM)		1 to 2 µM			COc1ccc2c(c1O)OCC(C(=O)c1cc(OC)c(OC)c(OC)c1)=C2 [Compound 5, 3-(3′,4′,5′-Trimethoxybenzoyl)-7-methoxy-8-hydroxy-2H-chromene]			80%	90%
5.5 µg/mL (≈ 14.8 µM)	> 10 µg/mL	7.3 µg/mL (≈ 19.6 µM)	> 10 µg/mL	> 40 µM	7.1 µg/mL (≈ 19.1 µM)	3.9 µg/mL (≈ 10.5 µM)	COc1cc2c(cc1O)C=C(C(=O)c1cc(OC)c(OC)c(OC)c1)CO2 [Compound 9, 3-(3′,4′,5′-Trimethoxybenzoyl)-6-hydroxy-7-methoxy-2H-chromene]	28.2 µg/mL (≈ 75.7 µM)			

Source: US7456214B2, “Chromene-containing compounds with anti-tubulin and vascular targeting activity” (Baylor University, priority 2004, dated 2008)
